This note sets out measurements from patent publication US6376497B1, “Antifungal azole derivatives having a fluorinated vinyl group and process for preparing same” (Korea Research Institute of Chemical Technology, priority 1999, dated 2002).

Structures are written as SMILES.

Common to all, as to assay: In vitro antifungal activity, microbroth dilution MIC
Assay type in all cases: cell-based
Holding throughout (details): RPMI-1640, 35° C., 4 to 48 hours, no growth observed

Assay [1] relates to Aspergillus furnigatus B. 19119. The procedure, abridged:
(§1)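 Broth microdilution adapted from NCCLS M27, in RPMI-1640 with 0.165 M MOPS, pH 7.0. Yeast or mould inoculum at 2×10^3 CFU/ml was mixed 1:1 with DMSO-derived compound solutions (200 to 0.10 μg/ml before mixing) and incubated at 35 °C for 4 to 48 h. MIC was the concentration showing no growth.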

Assay [2] deals with Aspergillus niger A. 16404. The procedure, abridged: as §1
In assay [3] the test system is Candida albicans A. 10231. The procedure, abridged:
as §1

A further assay deals with Candida albicans C1-2. The procedure, abridged: as §1
In assay [4] the test system is Candida albicans IFO. 1385. The procedure, abridged:
as §1

The next assay has as its system Candida krusei K. 11655. The procedure, abridged:
as §1

For assay [5], the system named is Candida parapsitosis A. 7330. The procedure, abridged:
as §1

Assay [6] deals with Candida pseudotropicalis K. 11658. The procedure, abridged:
as §1

In assay [7] the test system is Candida tropicalis A. 13803. The procedure, abridged: as §1
Assay [8] deals with Cryptococcus neoformans A. 34144. The procedure, abridged: as §1
Assay [9] concerns Cryptococcus neoformans B. 42419. The procedure, abridged:
as §1

Assay [10] concerns Cryptococcus neoformans IFM. 40092. The procedure, abridged: as §1
In assay [11] the test system is Torulopsis glabrata B. 16205. The procedure, abridged:
as §1

The subject of assay [12] is Trichophyton mentagrophytes A. 9129. The procedure, abridged:
as §1

Assay [13] relates to Trichophyton mentagrophytes B. 32663. The procedure, abridged: as §1

As for `FC(Oc1ccc(OCC2COC(Cn3ccnc3)(c3ccc(Cl)cc3Cl)O2)cc1)=C(c1ccc(Cl)cc1)C(F)(F)F` (mixture of isomers) [Ex. 102], the “Minimal inhibitory concentration(MIC), A furnigatus B. 19119” value in [1] came out at 100 µg/mL. For the same compound, the “Minimal inhibitory concentration(MIC), A. niger A. 16404” value in [2] is greater than 100 µg/mL. Further, in assay [3], the “Minimal inhibitory concentration(MIC), C. albicans A. 10231” value was 100 µg/mL. Moreover, the “Minimal inhibitory concentration(MIC), C. albicans C1-2” value in the assay on Candida albicans C1-2 stood at 100 µg/mL. Further, the “Minimal inhibitory concentration(MIC), C. albicans IFO. 1385” value in assay [4] was 6.25 µg/mL. For the same compound, in the assay with Candida krusei K. 11655, the “Minimal inhibitory concentration(MIC), C. krusei K. 11655” value was greater than 100 µg/mL. Besides, the “Minimal inhibitory concentration(MIC), C. parapsitosis A. 7330” value in assay [5] is greater than 100 µg/mL. The “Minimal inhibitory concentration(MIC), C. pseudotropicalis K. 11658” value in assay [6] was greater than 100 µg/mL. In [7], the “Minimal inhibitory concentration(MIC), C. tropicalis A. 13803” value is greater than 100 µg/mL. Further, the “Minimal inhibitory concentration(MIC), Cry. neoformans A. 34144” value in assay [8] worked out at 12.5 µg/mL. Also, in assay [9], the “Minimal inhibitory concentration(MIC), Cry. neoformans B. 42419” value was greater than 100 µg/mL. Further, in assay [10], the “Minimal inhibitory concentration(MIC), Cry. neoformans IFM. 40092” value came to 3.13 µg/mL. For the same compound, the “Minimal inhibitory concentration(MIC), T. glabrata B. 16205” value in assay [11] worked out at 100 µg/mL. The “Minimal inhibitory concentration(MIC), T. mentagrophytes A. 9129” value in assay [12] was 25.0 µg/mL. For the same compound, the “Minimal inhibitory concentration(MIC), T. mentagrophytes B. 32663” value in assay [13] was 12.5 µg/mL.

Take `FC(Oc1ccc(OCC2COC(Cn3ccnc3)(c3ccc(Cl)cc3Cl)O2)cc1)=C(c1cccc(F)c1)C(F)(F)F` (mixture of isomers) [Ex. 103]: the “Minimal inhibitory concentration(MIC), A furnigatus B. 19119” value in assay [1] was 100 µg/mL. The “Minimal inhibitory concentration(MIC), A. niger A. 16404” value in assay [2] was greater than 100 µg/mL. For the same compound, the “Minimal inhibitory concentration(MIC), C. albicans A. 10231” value in [3] came out at 50.0 µg/mL. Besides, the “Minimal inhibitory concentration(MIC), C. albicans C1-2” value with Candida albicans C1-2 worked out at 50.0 µg/mL. In assay [4], the “Minimal inhibitory concentration(MIC), C. albicans IFO. 1385” value came to 3.13 µg/mL. Besides, the “Minimal inhibitory concentration(MIC), C. krusei K. 11655” value in the assay with Candida krusei K. 11655 is greater than 100 µg/mL. Also, the “Minimal inhibitory concentration(MIC), C. parapsitosis A. 7330” value in [5] is greater than 100 µg/mL. In addition, in assay [6], the “Minimal inhibitory concentration(MIC), C. pseudotropicalis K. 11658” value is greater than 100 µg/mL. For the same compound, the “Minimal inhibitory concentration(MIC), C. tropicalis A. 13803” value in assay [7] is greater than 100 µg/mL. Also, the “Minimal inhibitory concentration(MIC), Cry. neoformans A. 34144” value in assay [8] was 3.13 µg/mL. For the same compound, in assay [9], the “Minimal inhibitory concentration(MIC), Cry. neoformans B. 42419” value is 3.13 µg/mL. Moreover, the “Minimal inhibitory concentration(MIC), Cry. neoformans IFM. 40092” value in assay [10] came to 0.78 µg/mL. Further, the “Minimal inhibitory concentration(MIC), T. glabrata B. 16205” value in [11] was 50.0 µg/mL. Also, in assay [12], the “Minimal inhibitory concentration(MIC), T. mentagrophytes A. 9129” value stood at 12.5 µg/mL. Further, in assay [13], the “Minimal inhibitory concentration(MIC), T. mentagrophytes B. 32663” value came to 6.25 µg/mL.

On to `FC(Oc1ccc(OCC2COC(Cn3ccnc3)(c3ccc(Cl)cc3Cl)O2)cc1)=C(c1cc(Cl)cc(Cl)c1)C(F)(F)F` (mixture of isomers) [Ex. 104], for which, in assay [1], the “Minimal inhibitory concentration(MIC), A furnigatus B. 19119” value was greater than 100 µg/mL. In addition, the “Minimal inhibitory concentration(MIC), A. niger A. 16404” value in assay [2] was greater than 100 µg/mL. Also, in assay [3], the “Minimal inhibitory concentration(MIC), C. albicans A. 10231” value was determined as 100 µg/mL. In addition, in the assay on Candida albicans C1-2, the “Minimal inhibitory concentration(MIC), C. albicans C1-2” value is greater than 100 µg/mL. Also, the “Minimal inhibitory concentration(MIC), C. albicans IFO. 1385” value in [4] stood at 3.13 µg/mL. For the same compound, in the assay with Candida krusei K. 11655, the “Minimal inhibitory concentration(MIC), C. krusei K. 11655” value is greater than 100 µg/mL. In addition, the “Minimal inhibitory concentration(MIC), C. parapsitosis A. 7330” value in assay [5] was greater than 100 µg/mL. Besides, the “Minimal inhibitory concentration(MIC), C. pseudotropicalis K. 11658” value in assay [6] is greater than 100 µg/mL. In assay [7], the “Minimal inhibitory concentration(MIC), C. tropicalis A. 13803” value is greater than 100 µg/mL. Also, the “Minimal inhibitory concentration(MIC), Cry. neoformans A. 34144” value in assay [8] worked out at 3.13 µg/mL. In [9], the “Minimal inhibitory concentration(MIC), Cry. neoformans B. 42419” value came to 3.13 µg/mL. In addition, the “Minimal inhibitory concentration(MIC), Cry. neoformans IFM. 40092” value in assay [10] amounted to 0.78 µg/mL. Also, in assay [11], the “Minimal inhibitory concentration(MIC), T. glabrata B. 16205” value was 100 µg/mL. The “Minimal inhibitory concentration(MIC), T. mentagrophytes A. 9129” value in assay [12] was 50.0 µg/mL. Further, in assay [13], the “Minimal inhibitory concentration(MIC), T. mentagrophytes B. 32663” value was found to be 25.0 µg/mL.
